Experimental data taken from paper PMC7407272, “Induction of Lysosome Membrane Permeabilization as a Therapeutic Strategy to Target Pancreatic Cancer Stem Cells” (Cancers, 2020).

How the values were obtained:
CAMK2A = target: T1, CAMK2A (Homo sapiens, UniProt Q9UQM7); assay: KINOMEscan; type: binding; conditions: read-out: % Ctrl
T1 construct: purchased DiscoveRx KINOMEscan

GSK3B = target: T2, GSK3B (Homo sapiens, UniProt P49841); assay: KINOMEscan; type: binding; conditions: read-out: % Ctrl
T2 construct: purchased DiscoveRx KINOMEscan
T2 sequence (P49841 whole entry): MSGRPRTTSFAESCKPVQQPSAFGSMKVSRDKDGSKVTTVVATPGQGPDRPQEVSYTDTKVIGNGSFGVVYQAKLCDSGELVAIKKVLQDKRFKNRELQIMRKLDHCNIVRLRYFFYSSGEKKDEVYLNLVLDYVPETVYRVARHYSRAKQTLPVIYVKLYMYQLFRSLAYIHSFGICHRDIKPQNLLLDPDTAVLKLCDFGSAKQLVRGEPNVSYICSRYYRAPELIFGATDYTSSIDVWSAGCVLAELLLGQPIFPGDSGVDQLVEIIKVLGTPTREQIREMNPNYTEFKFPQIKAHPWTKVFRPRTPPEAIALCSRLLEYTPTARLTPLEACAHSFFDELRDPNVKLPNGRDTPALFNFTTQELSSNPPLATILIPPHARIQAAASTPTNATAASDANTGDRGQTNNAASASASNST

LZK = target: T3, LZK (Homo sapiens, UniProt O43283); assay: KINOMEscan; type: binding; conditions: read-out: % Ctrl
T3 construct: purchased DiscoveRx KINOMEscan
T3 sequence (O43283 whole entry): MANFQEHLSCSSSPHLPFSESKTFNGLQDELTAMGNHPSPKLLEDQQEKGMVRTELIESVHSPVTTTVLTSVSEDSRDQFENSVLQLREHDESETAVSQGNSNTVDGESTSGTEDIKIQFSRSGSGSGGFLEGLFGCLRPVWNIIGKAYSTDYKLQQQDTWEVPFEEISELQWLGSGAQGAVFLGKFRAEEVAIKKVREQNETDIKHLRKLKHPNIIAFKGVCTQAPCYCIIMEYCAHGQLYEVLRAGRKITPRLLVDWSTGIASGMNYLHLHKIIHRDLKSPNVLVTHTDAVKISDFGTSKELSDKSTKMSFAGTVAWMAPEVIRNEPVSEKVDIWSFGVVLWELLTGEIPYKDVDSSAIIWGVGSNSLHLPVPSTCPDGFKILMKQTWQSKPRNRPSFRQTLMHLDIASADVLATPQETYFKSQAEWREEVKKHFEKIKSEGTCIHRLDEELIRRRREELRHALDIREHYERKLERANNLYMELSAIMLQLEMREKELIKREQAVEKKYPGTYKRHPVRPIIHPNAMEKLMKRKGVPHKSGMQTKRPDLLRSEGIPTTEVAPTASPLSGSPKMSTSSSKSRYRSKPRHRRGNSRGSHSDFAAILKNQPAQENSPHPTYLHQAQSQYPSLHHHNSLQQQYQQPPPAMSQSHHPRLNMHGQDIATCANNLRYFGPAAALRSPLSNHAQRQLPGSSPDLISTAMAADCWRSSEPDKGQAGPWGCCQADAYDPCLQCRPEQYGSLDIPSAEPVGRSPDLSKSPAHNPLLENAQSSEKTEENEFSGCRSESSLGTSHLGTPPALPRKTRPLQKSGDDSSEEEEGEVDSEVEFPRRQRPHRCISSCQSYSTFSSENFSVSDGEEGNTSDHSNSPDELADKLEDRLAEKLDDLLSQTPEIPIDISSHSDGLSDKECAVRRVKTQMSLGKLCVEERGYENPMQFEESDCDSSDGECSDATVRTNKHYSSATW

TYK2 = target: T4, TYK2 (Homo sapiens, UniProt P29597); assay: TYK2 kinase assay (ProQinase); type: biochemical; conditions: kinase orthogonal assay
T4 construct: purchased ProQinase

SgK110 = target: T5, SgK110 (Homo sapiens, UniProt P0C264); assay: KINOMEscan; type: binding; conditions: read-out: % Ctrl
T5 construct: purchased DiscoveRx KINOMEscan
T5 sequence (P0C264 whole entry): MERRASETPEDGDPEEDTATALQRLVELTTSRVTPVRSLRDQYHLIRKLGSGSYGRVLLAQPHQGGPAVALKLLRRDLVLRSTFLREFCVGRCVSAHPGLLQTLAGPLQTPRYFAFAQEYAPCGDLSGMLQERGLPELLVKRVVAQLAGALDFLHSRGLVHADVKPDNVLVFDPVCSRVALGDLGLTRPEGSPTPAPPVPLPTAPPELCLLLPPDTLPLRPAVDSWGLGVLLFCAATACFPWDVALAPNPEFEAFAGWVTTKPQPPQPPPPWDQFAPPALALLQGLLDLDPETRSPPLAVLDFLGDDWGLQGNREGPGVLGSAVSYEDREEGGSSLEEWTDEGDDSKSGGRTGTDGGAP

PFTAIRE2 = target: T6, PFTAIRE2 (Homo sapiens, UniProt Q96Q40); assay: KINOMEscan; type: binding; conditions: read-out: % Ctrl
T6 construct: purchased DiscoveRx KINOMEscan
T6 sequence (Q96Q40 whole entry): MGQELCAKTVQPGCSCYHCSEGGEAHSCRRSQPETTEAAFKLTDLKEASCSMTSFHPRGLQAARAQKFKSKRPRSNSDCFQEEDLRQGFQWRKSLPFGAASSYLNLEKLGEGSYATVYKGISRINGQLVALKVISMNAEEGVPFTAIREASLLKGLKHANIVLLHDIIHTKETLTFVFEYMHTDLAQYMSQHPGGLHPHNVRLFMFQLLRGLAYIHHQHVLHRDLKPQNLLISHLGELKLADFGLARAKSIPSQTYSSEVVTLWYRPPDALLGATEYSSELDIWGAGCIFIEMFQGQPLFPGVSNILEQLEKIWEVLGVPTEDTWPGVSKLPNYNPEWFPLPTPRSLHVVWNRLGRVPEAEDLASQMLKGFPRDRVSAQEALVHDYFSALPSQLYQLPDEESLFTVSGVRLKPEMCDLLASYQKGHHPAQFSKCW

MTOR = target: T7, MTOR (Homo sapiens, UniProt P42345); assay: KINOMEscan; type: binding; conditions: read-out: % Ctrl
T7 construct: purchased DiscoveRx KINOMEscan

PRKCD = target: T8, PRKCD (Homo sapiens, UniProt Q05655); assay: KINOMEscan; type: binding; conditions: read-out: % Ctrl
T8 construct: purchased DiscoveRx KINOMEscan
T8 sequence (Q05655 whole entry): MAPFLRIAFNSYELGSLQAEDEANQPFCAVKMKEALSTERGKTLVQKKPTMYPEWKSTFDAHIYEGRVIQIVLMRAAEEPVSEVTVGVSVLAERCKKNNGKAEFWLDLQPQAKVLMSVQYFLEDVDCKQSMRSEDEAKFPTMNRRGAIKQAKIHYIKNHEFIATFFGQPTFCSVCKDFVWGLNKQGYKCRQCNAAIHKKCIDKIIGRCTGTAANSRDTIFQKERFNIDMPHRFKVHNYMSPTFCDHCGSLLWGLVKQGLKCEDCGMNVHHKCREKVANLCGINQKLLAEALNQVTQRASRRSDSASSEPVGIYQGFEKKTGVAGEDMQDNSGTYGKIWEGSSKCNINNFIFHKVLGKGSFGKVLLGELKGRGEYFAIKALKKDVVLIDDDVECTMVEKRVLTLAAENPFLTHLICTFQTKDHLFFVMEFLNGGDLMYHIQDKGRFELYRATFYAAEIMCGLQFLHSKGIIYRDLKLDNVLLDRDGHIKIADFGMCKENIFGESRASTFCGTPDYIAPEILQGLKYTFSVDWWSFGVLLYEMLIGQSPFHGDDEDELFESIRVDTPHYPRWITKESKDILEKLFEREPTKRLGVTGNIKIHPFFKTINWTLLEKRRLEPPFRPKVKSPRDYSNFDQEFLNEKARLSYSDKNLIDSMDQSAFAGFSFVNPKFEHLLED

BRAF = target: T9, BRAF (Homo sapiens, UniProt P15056); assay: KINOMEscan; type: binding; conditions: read-out: % Ctrl
T9 construct: purchased DiscoveRx KINOMEscan
T9 sequence (P15056 whole entry): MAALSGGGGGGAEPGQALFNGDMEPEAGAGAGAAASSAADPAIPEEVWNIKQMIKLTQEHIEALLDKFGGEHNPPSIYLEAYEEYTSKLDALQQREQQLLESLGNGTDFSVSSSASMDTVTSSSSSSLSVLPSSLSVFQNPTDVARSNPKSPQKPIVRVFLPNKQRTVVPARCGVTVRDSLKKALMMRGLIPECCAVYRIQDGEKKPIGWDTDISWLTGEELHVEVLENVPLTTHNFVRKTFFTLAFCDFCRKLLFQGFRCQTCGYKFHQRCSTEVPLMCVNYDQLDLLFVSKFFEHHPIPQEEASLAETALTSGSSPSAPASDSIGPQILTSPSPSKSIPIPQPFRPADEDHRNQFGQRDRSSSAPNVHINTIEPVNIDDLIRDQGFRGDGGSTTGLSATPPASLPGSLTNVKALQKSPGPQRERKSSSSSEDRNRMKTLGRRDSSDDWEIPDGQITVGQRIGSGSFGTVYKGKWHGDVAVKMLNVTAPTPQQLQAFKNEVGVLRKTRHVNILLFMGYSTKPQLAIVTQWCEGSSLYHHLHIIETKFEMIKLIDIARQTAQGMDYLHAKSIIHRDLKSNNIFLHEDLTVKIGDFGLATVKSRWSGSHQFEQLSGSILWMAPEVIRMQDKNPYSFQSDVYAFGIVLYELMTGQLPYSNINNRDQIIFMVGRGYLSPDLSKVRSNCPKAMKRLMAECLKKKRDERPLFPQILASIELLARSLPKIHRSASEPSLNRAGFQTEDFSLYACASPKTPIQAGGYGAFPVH

MST4 = target: T10, MST4 (Homo sapiens, UniProt Q9P289); assay: KINOMEscan; type: binding; conditions: read-out: % Ctrl
T10 construct: purchased DiscoveRx KINOMEscan
T10 sequence (Q9P289 whole entry): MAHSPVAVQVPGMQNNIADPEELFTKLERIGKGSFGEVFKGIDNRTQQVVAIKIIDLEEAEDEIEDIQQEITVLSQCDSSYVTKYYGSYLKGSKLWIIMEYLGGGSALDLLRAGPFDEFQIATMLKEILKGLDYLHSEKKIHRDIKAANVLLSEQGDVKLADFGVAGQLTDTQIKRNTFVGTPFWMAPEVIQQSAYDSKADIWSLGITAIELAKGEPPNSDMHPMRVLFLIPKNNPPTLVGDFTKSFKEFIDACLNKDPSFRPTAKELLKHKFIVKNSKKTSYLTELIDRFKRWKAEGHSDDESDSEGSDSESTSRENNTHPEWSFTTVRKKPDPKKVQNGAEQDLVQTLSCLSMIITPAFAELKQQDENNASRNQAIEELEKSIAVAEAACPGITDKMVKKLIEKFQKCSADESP

T1 sequence (Q9UQM7 whole entry): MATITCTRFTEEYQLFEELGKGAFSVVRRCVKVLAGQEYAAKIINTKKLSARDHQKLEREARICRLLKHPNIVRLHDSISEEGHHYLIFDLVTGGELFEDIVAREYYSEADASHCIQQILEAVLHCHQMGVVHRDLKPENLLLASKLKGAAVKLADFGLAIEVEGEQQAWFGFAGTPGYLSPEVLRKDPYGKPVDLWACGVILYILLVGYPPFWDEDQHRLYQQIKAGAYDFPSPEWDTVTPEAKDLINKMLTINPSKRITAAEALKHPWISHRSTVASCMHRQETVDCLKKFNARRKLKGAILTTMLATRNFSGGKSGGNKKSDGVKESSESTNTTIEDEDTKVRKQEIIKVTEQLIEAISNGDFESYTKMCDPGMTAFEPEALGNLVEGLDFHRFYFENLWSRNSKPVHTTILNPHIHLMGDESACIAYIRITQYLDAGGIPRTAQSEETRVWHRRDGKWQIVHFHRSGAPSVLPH

CN1CCC(CNc2ccc3ncc(C(=O)Nc4cccc(OC(F)(F)F)c4)n3n2)CC1 [Cpd 2]
remaining binding at 1 µM (CAMK2A): 82% | remaining binding at 1 µM (GSK3B): 97% | remaining binding at 1 µM (LZK): 92% | IC50 (TYK2): 65 µM | remaining binding at 1 µM (SgK110): 72% | remaining binding at 1 µM (PFTAIRE2): 92% | remaining binding at 1 µM (MTOR): 100% | remaining binding at 1 µM (PRKCD): 80% | remaining binding at 1 µM (BRAF): 100% | remaining binding at 1 µM (MST4): 100%
